According to patent publication US4714699A, “2-tolylmorpholine derivatives and pharmaceutical compositions” (Societe Anonyme Dite: Laboratoire L. Lafon, priority 1983, dated 1987):
“Also recorded” adds a separate entry of the source. Like-named read-outs stand apart in the source and are kept apart here.

How the values were obtained:
[1] = traction test; assay type: in vivo, male mice; details: i.p., mice
Procedure: (§1) In the following tests, CRL 40 875, in solution in distilled water, was administered intraperitoneally in a volume of 20 ml/kg to male mice and 5 ml/kg to male rats.
(§2) The test is performed on groups of 10 mice half an hour after the administration of CRL 40 875.
(§3) In the following tests, CRL 40 897, in solution in distilled water (pH 4), was administered intraperitoneally in a volume of 20 ml/kg to male mice and in a volume of 5 ml/kg to male rats, the procedures being those given above for CRL 40 875.

[2] = overall behavior and reactivities in mice; assay type: in vivo, male mice
Procedure: as §1
Groups of three mice are observed before and then 15 minutes, 30 minutes, 1 hour, 2 hours, 3 hours and 24 hours after the administration of CRL 40 875.
as §3
(§4) The toxicological and neuropsychopharmacological studies undertaken in accordance with the procedures described above for CRL 40 875 enabled the following observations to be made: […]

[3] = cardiovascular study in rats; assay type: in vivo; details: normally hypertensive rats
[4] = neuropsychopharmacological study, overall findings; assay type: in vivo, mice, rats; details: for sedative effects: weak doses where stated
Procedure: as §1, §3
(§5) In the tests undertaken, CRL 40 912, in solution in distilled water (pH 4.5), was administered intraperitoneally in a volume of 20 ml/kg to male mice and in a volume of 5 ml/kg to male rats, the procedures being those given above for CRL 40 875.
as §4

[5] = four plate test; assay type: in vivo, male mice; details: i.p., mice
Procedure: as §1, §2, §3

[6] = clinical trials, treatment of depressions; assay type: in vivo; details: man
Description: In clinical trials, good results were obtained on man with CRL 40 875 (Example 1), CRL 40 912 (Example 2) and CRL 40 897 (Example 3) in the treatment of depressions.

[7] = action on the intergroup aggressiveness; assay type: in vivo, male mice; details: 0.5 mg/kg and 2 mg/kg i.p., mice
Procedure: as §1
After they have stayed for 3 weeks in the two halves of a cage divided by an opaque partition, groups of 3 mice receive CRL 40 875. Half an hour later, the two groups from the same cage are brought together by removal of the partition, and the number of fights which occur in 10 minutes is noted.
as §3, §5

[8] = pretoxicity (LD-O, maximum non-lethal dose); assay type: in vivo, male mice; details: for LD-O (maximum non-lethal dose): intraperitoneally, male mice
Procedure: as §1, §3, §5, §4

[9] = electric shock; assay type: in vivo, male mice; details: i.p., mice
Procedure: as §1, §2, §3

[10] = interaction with amphetamine; assay type: in vivo, male rats; details: i.p.; 2 mg/kg amphetamine; rats
Procedure: as §1, §3, §5

[11] = interaction with oxotremorine; assay type: in vivo, male mice
Procedure: as §1
CRL 40 875 is administered to groups of 6 mice half an hour before the intraperitoneal injection of 0.5 mg/kg of oxotremorine.
as §3, §5

[12] = motility reduced by habituation to the enclosure; assay type: in vivo, male mice; details: i.p.
Procedure: as §1
After they have stayed in the actimeters for 18 hours, the mice (6 per dose, 12 control animals) receive CRL 40 875. They are immediately returned to their respective enclosures and, half an hour later, their motility is recorded for 30 minutes.
as §3, §5

[13] = action on the spontaneous motility; assay type: in vivo, male mice; details: mice
Procedure: as §1
Half an hour after they have received CRL 40 875, the mice (6 per dose, 12 control animals) are placed in an actimeter, where their motility is recorded for 30 minutes.
as §3

[14] = asphyxiant anoxia (gallamine triiodoethylate); assay type: in vivo, male mice; details: i.p., mice
Procedure: as §1
Groups of 20 mice receive CRL 40 875 half an hour before the intraperitoneal administration of 32 mg/kg of gallamine triidoethylate (which is a reference curarizing agent).
as §3, §5

[15] = test system: α-adrenergic; test: α-adrenergic stimulation; details: in vivo; hydrochloride
[16] = cardiovascular study in dogs; assay type: in vivo; details: for minimal effective dose: Canis lupus familiaris, read-out: dose as from which femoral flow rate is increased; for vasodilator property: dog, in vivo
[17] = interaction with apomorphine in mice; assay type: in vivo, male mice; details: mice
Procedure: as §1
Groups of 6 mice receive CRL 40 875 0.5 hour before the subcutaneous injection of 1 or 16 mg/kg of apomorphine.
as §3, §5

[18] = motility reduced by hypoxic aggression; assay type: in vivo, male mice; details: i.p.
Procedure: as §1
Half an hour after they have received CRL 40 875, the mice (10 per dose, 20 control animals) are subjected to acute hypobaric anoxia [pressure reduction of 600 mm Hg (i.e. about 8×10^4 pascals) in 90 seconds; release of vacuum in 45 seconds] and are then placed in an actimeter, where their motility is recorded for 10 minutes.
as §3

[19] = interaction with reserpine; assay type: in vivo, male mice; details: i.p., mice
Procedure: as §1
Four hours after the intraperitoneal injection of 2.5 mg/kg of reserpine, groups of 6 mice receive CRL 40 875. The effects on the temperature and ptosis are observed.
as §3, §5

[20] = interaction with apomorphine in rats; assay type: in vivo, male rats; details: i.p., 0.5 mg/kg apomorphine
Procedure: as §1
CRL 40 875 is administered to groups of 6 rats 0.5 hour before the subcutaneous injection of 0.5 mg/kg of apomorphine.
as §3, §5

[21] = overall behavior in rats; assay type: in vivo, male rats
Procedure: as §1, §4

[22] = from EP-A-80,940, page 13, lines 6-10; cited from earlier work
[23] = test system: β1; test: β1 effect in dogs; assay type: in vivo; details: intraduodenal, anesthetized dogs
[24] = test system: β2; test: β2 effect in dogs; assay type: in vivo; details: intraduodenal, anesthetized dogs
[25] = 64 mg/kg and 32 mg/kg i.p., mice
[26] = 128 mg/kg i.p., groups of three mice
[27] = anesthetized dogs, intraduodenal (CRL 40 903: then intravenous)
[28] = intraduodenal, anesthetized dogs

SMILES: Cc1ccc(C2CN(C(C)C)CCO2)cc1.Cl (stereo not drawn) [CRL 40 875, 2-p-tolyl-4-isopropylmorpholine hydrochloride]
- major motor incapacity [1]: does not cause major motor incapacity
- duration of hypothermia ([2]; 2 mg/kg i.p., mice): 0.5 h
- hypothermia (temperature change) ([2]; 2 mg/kg i.p., mice): -1.5 °C
- duration of hypothermia ([2]; 8 mg/kg i.p., mice): 1 h
- duration of piloerection ([2]; 8 mg/kg i.p., mice): 3 h
- hypothermia (temperature change) ([2]; 8 mg/kg i.p., mice): -3.9 °C
- piloerection, animals affected ([2]; 8 mg/kg i.p., mice): 2/3
- duration of mydriasis ([2]; 32 mg/kg i.p., mice): 0.5 h
- duration of reduction in the reactivity to touch and muscular tonus ([2]; 32 mg/kg i.p., mice): 2 h
- hypothermia (temperature change) ([2]; 32 mg/kg i.p., mice): -4.1 °C
- mydriasis ([2]; 32 mg/kg i.p., mice): moderate mydriasis
- piloerection, animals affected ([2]; 32 mg/kg i.p., mice): 2 out of 3
- cardiovascular parameters [3]: does not modify the cardiovascular parameters
- variation of sedative effects with dose ([4]; in vivo): increase continuously with the dose administered, up to a maximum value, and then decrease continuously and progressively as the dose increases
- antidepressant effects ([4]; strong doses, hydrochloride): antidepressant effects (antagonism of the hypothermia induced by apomorphine and oxotremorine); also recorded: antidepressants at strong doses
- sedative effects ([4]; hydrochloride): sedative effects (hyporeactivity, hypothermia, hypomotility, significant reduction of aggressiveness, delayed onset of asphyxiant convulsions); also recorded: sedative effects (hypomotility, hypothermia, reduction of intergroup aggressiveness
- number of punished passes [5]: does not cause an increase in the number of punished passes
- results in the treatment of depressions [6]: good results
- effect on number of fights [7]: suppression of the fights
- effect on the motor activity [7]: only a moderate effect on the motor activity
- mortality [8, 25]: no mortality
- signs of toxicity [8, 25]: abdominal cramp and trembling
- mortality [8, 26]: death (of the 3 animals in the group)
- signs of toxicity [8, 26]: thick saliva and convulsions
- time to death ([8]; 128 mg/kg i.p., mice): 10 min
- effect on electric shock [9]: does not modify the convulsant effects of electric shock
- effect on stereotypies induced by amphetamine [10]: stereotypies induced by amphetamine are not modified
- effect on peripheral cholinergic symptoms (defecation) after oxotremorine ([11]; 0.5, 2, 8 and 32 mg/kg i.p., mice): increases the proportion of mice which exhibit defecation
- effect on the trembling due to oxotremorine ([11]; 8 and 32 mg/kg i.p., mice): seems to increase the duration of the trembling due to oxotremorine
- hypothermic effect ([11]; i.p., mice): exerts a hypothermic effect
- effect on the temperature drop caused by oxotremorine ([11]; strong dose, i.p.): partially opposes the temperature drop caused by oxotremorine
- resumption in the activity of mice accustomed to their enclosure [12]: does not cause a resumption in the activity of mice accustomed to their enclosure
- hypomotility ([13]; 8 and 32 mg/kg i.p.): very significant
- minimal effective dose ([13]; Mus musculus, ip, read-out: dose as from which motility is reduced): ≥ 2 mg/kg
- time taken for convulsions and death to occur following asphyxiant anoxia [14]: delays the time taken for convulsions and death to occur
- α-adrenergic stimulant effect [15]: signs of peripheral α-adrenergic stimulation (salivation, piloerection, trembling); also recorded: stimulant effects, especially of the α-adrenergic type
- effect on blood pressure and heart rate ([16]; dogs): hypotensive and tachycardiac agent
- intrinsic hypothermic effect ([17]; i.p.): exerts an intrinsic hypothermic effect
- effect on righting behavior and stereotypies ([17]; i.p., apomorphine): does not modify the righting behavior and the stereotypies
- effect on the hypothermia induced by apomorphine ([17]; strong dose (32 mg/kg) i.p., 16 mg/kg apomorphine): partially opposes the hypothermia induced by 16 mg/kg of apomorphine
- motor recovery in mice after reduced-pressure enclosure [18]: does not cause an improvement in the motor recovery
- effect on the ptosis induced by reserpine [19]: without modifying the ptosis induced by reserpine
- effect on the hypothermia induced by reserpine ([19]; strong dose): aggravates the hypothermia induced by reserpine
- effect on stereotypies induced by apomorphine [20]: does not substantially impair the stereotype behavior induced by apomorphine in rats

SMILES: Cc1ccc(C2CN(C(C)(C)C)CCO2)cc1.Cl (stereo not drawn) [CRL 40 903, 2-p-tolyl-4-tert.-butylmorpholine hydrochloride]
- sedation and depressed respiration ([2]; 64 mg/kg and 128 mg/kg i.p., male mice): induce sedation and depressed respiration
- sedative effects [4]: sedative effects
- LD-O (maximum non-lethal dose) [8]: greater than 128 mg/kg
- sedation and depressed respiration ([21]; 32 mg/kg i.p., male rats): induce sedation and depressed respiration
- maximum increase in femoral flow rate ([16]; 20 mg/kg, anesthetized dogs, intraduodenal then intravenous): +150%
- minimal effective dose [16, 27]: ≥ 2.5 mg/kg
- dose as from which tachycardia appears [16, 27]: ≥ 1 mg/kg
- effect on blood pressure [16, 27]: no action on the blood pressure
- effect on the hypertension induced by noradrenaline [16, 27]: does not modify the hypertension induced by noradrenaline
- effect on the hypotension / effects of isoprenaline [16, 27]: reduces the hypotension induced by isoprenaline
- effect of propanolol on induced vasodilation ([16]; anesthetized dogs, intraduodenal then intravenous): not completely suppressed by propanolol
- vasodilator property [16]: particularly interesting as vasodilators

SMILES: Cc1ccccc1C1CN(C)CCO1 (stereo not drawn) [CRL 40 915, 2-o-tolyl-4-methylmorpholine]
- variation of sedative effects with dose [22]: no sedation at a given dose, significant sedation at the next highest dose used

SMILES: CCN1CCOC(O)(c2cccc(C(F)(F)F)c2)C1.Cl (stereo not drawn) [CRL 41 092, 2-(m-trifluoromethylphenyl)-2-hydroxy-4-ethylmorpholine hydrochloride]
- hypothermia ([2]; 32 mg/kg i.p., mice): moderate hypothermia
- duration of sedation ([2]; 128 mg/kg i.p., mice): 0.5 h
- fear reaction, reactivity to touch and muscular tonus ([2]; 128 mg/kg i.p., mice): a reduction in the fear reaction, the reactivity to touch and the muscular tonus
- sedative effects [4]: sedative effects
- LD-O (maximum non-lethal dose) [8]: greater than 256 mg/kg
- β1 effect [23]: very slightly β1^-
- sedation, reactivity to touch and muscular tonus ([21]; 64 mg/kg i.p., rats): transistory sedation with a reduction in the reactivity to touch and the muscular tonus
- minimal effective dose [16, 27]: ≥ 1 mg/kg
- effect on blood pressure [16, 27]: tends to increase the blood pressure
- effect on the hypertension induced by noradrenaline [16, 27]: increases the hypertension induced by noradrenaline
- femoral flow rate ([16]; as from 1 mg/kg intraduodenally, anesthetized dogs): greatly increases the femoral flow rate
- vasodilator property [16]: particularly interesting as vasodilators
- effect on heart beat [16, 28]: does not modify the heart beat
- rectal and skin temperatures [16, 28]: a reduction in the vertebral flow rate and also in the rectal and skin temperatures
- vertebral flow rate [16, 28]: a reduction in the vertebral flow rate
- femoral flow rate after propanolol ([16]; propanolol injected at the end of the test, anesthetized dogs): remaining above its control value
- effect of propanolol on heart beat and femoral flow rate ([16]; propanolol injected at the end of the test, anesthetized dogs, intraduodenal): very slightly reduces the heart beat and femoral flow rate
- β2 effect [24]: very slightly β1^- and β2^-
